One assay deals with T1, Bombesin Receptor (Mus musculus, UniProt P21729).
T1 construct: Pancreata from mice were chopped at 350 μm with a tissue chopper and pooled; from tissue; host or cells: chopped mouse pancreas
Kind of assay: Phosphatidylinositol turnover in chopped mouse pancreas. The format is cell-based. Also noted: key to PI Turnover Agonist: (+) represents agonist activity; (-) indicates no agonist activity. On the procedure:
Pancreata from mice were chopped at 350 μm with a tissue chopper and pooled. The chopped tissue was washed twice with oxygenated Krebs-Hepes, then incubated for 30 minutes in 37° C. oxygenated Krebs-Hepes buffer with fresh buffer after 15 minutes. The tissue was then incubated in this buffer containing 200 μCi of [^3 H] inositol at 37° C. for 1 hour. The tissue was then washed twice and incubated for another 30 minutes in oxygenated Krebs-Hepes (containing 10 mM Li^+) at 37° C. with a fresh buffer change after 15 minutes. Portions of the tissue mass (approximately 10 mg per assay tube) were then placed in Li^+ buffer with protease inhibitors, (40 μg/ml bacitracin, 4 μg/ml leupeptin, 4 μg/ml chymostatin, 8 μg/ml thiorphan), 0.1% BSA, and 0.1-10 μM peptide in a final volume of 250 μl. After 60 minutes at room temperature, the phosphatidylinositol turnover was terminated by the addition of 940 μl chloroform:methanol (1:2), followed by 310 μl chloroform, followed by 310 μl water. Each tube was then vortexed for 5 seconds and then centrifuged at 2500 x g for 10 minutes to separate the phases. 50 μl of the bottom phase (chloroform) was withdrawn from each tube and placed in a counting vial, dried, and counted in scintillation fluid. 900 μl of the top (aqueous) phase were then mixed with 2.1 ml water and loaded onto a 0.5 ml Biorad AG-1X8 (formate) ion exchange column. The material on the columns was washed in order with: 1) 10 ml of water 2) 5 ml of 5 mM disodium tetraborate/60 mM sodium formate 3) 10 ml of 1 M ammonium formate in 0.1 M formic acid. The final (third) wash was collected and one ml was mixed with 14 ml of Bio-Safe scintillant and counted. The ratio of these counts (total inositol phosphates) to the corresponding organic phase counts (inositol incorporated into the tissue) was then calculated for each sample. The ratios in the presence of test compound and/or standards were then compared to the ratios for control tubes (i.e., no stimulating agonist). The abilities of test compounds to stimulate phosphatidyl-inositol turnover were determined with the aid of a computer program. […] The ordinate (y-axis) indicates the observed PI turnover as a percentage of control. Values are mean±standard error of triplicate determinations.

A further assay concerns the target T2, bombesin/GRP receptor (Mus musculus, UniProt P21729).
T2 construct: The pancreata from one or more mice were pooled and homogenized; from tissue; host or cells: mouse pancreas membranes
Kind of assay: Competition for 125I-GRP binding to murine pancreatic membranes. On the procedure: The pancreata from one or more mice were pooled and homogenized in 50 mM HEPES (pH 7.4) containing 120 mM NaCl, 5 mM KCl, 1 mM EDTA and protease inhibitors (1 μg/ml aprotinin, leupeptin, pepstatin; 4 μg/ml bacitracin, antipain, bestatin; 100 μM PMSF) at 4° C. and centrifuged at 37,500 X g for 15 minutes. The pellet was resuspended in 50 mM HEPES (pH 7.4) containing 10 mM EDTA, 300 mM KCl, and protease inhibitors, and then incubated for 30 minutes at 4° C. The suspension was centrifuged as above and the pellet was washed two times in 50 mM HEPES (pH 7.4) containing 8 μg/ml thiorphan and protease inhibitors, and again centrifuged. The tissue was then resuspended in incubation buffer (1 ml per 4 mg pancreas) and incubated for 15 minutes at room temperature, then 250 μl were added to each assay tube to commence the assay. […] The assay was allowed to proceed to equilibrium for 90 minutes at room temperature. After this time, the contents of each tube was rapidly filtered over Whatman GF/B filters presoaked in 0.1% polyethyleneimine and the filters were rapidly washed three times with ice-cold 50 mM HEPES (pH 7.4). Filter-bound radioactivity was quantitated in a gamma counter. […] Affinity and maximal binding were calculated with LIGAND (Biosoft, Cambridge, UK) (FIGS. 1 and FIG. 2)
The abscissa (x-axis) logarithmically indicates the concentration of agonists being tested.

For assay [1], the system named is cell surface receptors that bind bombesin. The following applies: background section; read-out: KD of high-affinity cell surface receptors that bind bombesin; cited from earlier work.

SMILES strings stand for the structures. Where two headings read alike, the source gives them in different places. Where a SMILES comes first, the peptide text is derived from it. [ ]: non-standard residue; d: D form. The star is where a group is joined. X1 = CC(C)C[C@@H](C(N)=O)N(C)C[C@H](Cc1ccccc1)N*; pGlu = O=C1CC[C@@H](C(=O)O)N1

T1 sequence (P21729 whole entry): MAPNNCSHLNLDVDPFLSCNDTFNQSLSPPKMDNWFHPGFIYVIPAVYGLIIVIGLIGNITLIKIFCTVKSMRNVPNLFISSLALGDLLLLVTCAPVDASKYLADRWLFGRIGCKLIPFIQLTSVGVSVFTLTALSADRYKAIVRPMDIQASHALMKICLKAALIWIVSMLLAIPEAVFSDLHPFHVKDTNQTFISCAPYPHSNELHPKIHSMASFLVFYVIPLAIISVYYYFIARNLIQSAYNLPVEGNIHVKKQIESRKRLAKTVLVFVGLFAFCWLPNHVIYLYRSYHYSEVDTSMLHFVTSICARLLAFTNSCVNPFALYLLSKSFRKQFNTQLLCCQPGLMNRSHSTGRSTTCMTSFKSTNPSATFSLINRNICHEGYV
T2 sequence (P21729 whole entry): as above

Broadly, the Kd is the free concentration of one partner at which half of the binding sites on the other are occupied at equilibrium, for simple one-to-one binding. With `CC(C)C[C@@H](C(N)=O)N(C)C[C@H](Cc1ccccc1)NC(=O)[C@H](Cc1c[nH]cn1)NC(=O)CNC(=O)[C@@H](NC(=O)[C@H](C)NC(=O)[C@H](Cc1c[nH]c2ccccc12)NC(=O)[C@H](CCC(N)=O)NC(=O)[C@@H]1CCC(=O)N1)C(C)C` [[Phe^8 .psi.[CH2 N(CH3)]Leu^9]litorin] ([pGlu]QWAVGH-X1), the “PI Turnover Agonist” value at Bombesin Receptor was “+”. Moreover, the “PI Turnover % Inhibition” value on Bombesin Receptor (antagonist activity, referenced to the stimulation produced by 100 nM GRP) is recorded as -16%. In addition, the “PI turnover as a percentage of control (FIG. 3)” value on Bombesin Receptor (triplicate determinations) was “statistically significant (P<0.005) increase in PI turnover”. In addition, the Kd on bombesin/GRP receptor (duplicate, 20 pM 125I-GRP, two-site fit, read-out: Kd, high affinity class of sites (FIG. 2)) was 0.08 nM; on bombesin/GRP receptor (duplicate, 20 pM 125I-GRP, two-site fit, read-out: Kd, low affinity class of sites (FIG. 2)), 16 nM; on bombesin/GRP receptor (first of two values in the cell, mouse pancreas, averages of multiple experiments, read-out: Kd (nM), high affinity class of sites), 0.019 nM; on bombesin/GRP receptor (second of two values in the cell, mouse pancreas, averages of multiple experiments, read-out: Kd (nM), low affinity class of sites), 23 nM. Moreover, the “receptors in the high affinity state (FIG. 2)” value at bombesin/GRP receptor (two-site fit, 20 pM 125I-GRP) came out at 20%.

Regarding `CSCC[C@H](NC(=O)[C@H](CC(C)C)NC(=O)[C@H](Cc1cnc[nH]1)NC(=O)CNC(=O)[C@@H](NC(=O)[C@H](C)NC(=O)[C@H](Cc1c[nH]c2ccccc12)NC(=O)[C@H](CCC(N)=O)NC(=O)[C@H](CC(N)=O)NC(=O)CNC(=O)[C@H](CC(C)C)NC(=O)[C@H](CCCN=C(N)N)NC(=O)[C@H](CCC(N)=O)NC(=O)[C@@H]1CCC(=O)N1)C(C)C)C(N)=O` [Bombesin, pGlu--Gln--Arg--Leu--Gly--Asn--Gln--Trp--Ala--Val--Gly--His--Phe--Met--NH2], the “PI Turnover Agonist” value at Bombesin Receptor is recorded as “+”. Moreover, the Kd in assay [1] is 1 nM.

These data come from US5428019A, “Bombesin analogs” (Merrell Dow Pharmaceuticals Inc., priority 1994, dated 1995).
